Data set [1] has as its system TNF-α production from rat whole blood cells stimulated with LPS. Briefly: TNF-α production-suppressing activity in LPS-stimulated rat whole blood (ELISA). The format is cell-based. As to conditions: 37° C. for 5 hours. As for the experimental part:
The activity of a test compound to suppress TNF-α production from rat whole blood cells stimulated with LPS was evaluated in the manner mentioned below (J. Pharmacol. Exp. Ther., 302, 390-396, 2000).
Under anesthesia with ether, a proper amount of blood was taken out from a 10-week male SD rat (♂, 10-week old) through its abdominal vein into a tube with EDTA (1.6 mg/mL) therein. A test compound was dissolved in dimethyl sulfoxide to prepare its 10^−2 M solution, which was diluted before use. 80 μL of rat blood was dispensed into each well of a 96-well plate, then 10 μL of the test compound solution was added thereto, and incubated at 37° C. in 5% CO2 for 30 minutes. The test compound and the blood were well mixed, then 10 μL of LPS (100 μg/mL) was added thereto, and incubated at 37° C. in 5% CO2 for 5 hours. Further, 100 μL of PBS was added to each well, then the plate was centrifuged at 4000 rpm for 2 minutes to collect the supernatant, and this was frozen and stored at −80° C. until its use for analysis. The amount of TNF-α production was measured through ELISA. IC50 for TNF-α production-suppressing activity was calculated as the test compound concentration for 50% inhibition of TNF-α production.
As a control compound, the above-mentioned known compound (compound of general formula [A] in which R is a carboxyl group, cis-4-[4-(3,4-dimethoxyphenyl)-1-oxo-4a,5,8,8a-tetrahydro-1H-phthalazin-2-yl-methyl]benzoic acid (hereinafter referred to as control compound A)) was used.

Another data set has as its target T1, human recombinant PDE4D (Homo sapiens, UniProt Q08499).
T1 construct: purchased ABNOVA H00005144-P01
Briefly: PDE4 inhibitory activity (cAMP hydrolysis, HitHunter cAMP II chemiluminescent kit). The following applies: 5 ng human recombinant PDE4D, 1 pmol cAMP, 30° C. for 30 minutes. The format is biochemical. Here is the method:
The activity of a test compound to inhibit human PDE4 was evaluated in the manner mentioned below.
In the presence of a test compound (10^−7 to 10^−12 M), 1 pmol of cAMP was hydrolyzed through incubation with 5 ng of human recombinant PDE4D (ABNOVA's #H00005144-P01, Lot. FAK0050713Jb01, Taiwan) at 30° C. for 30 minutes. After the hydrolysis, the cAMP concentration was measured with a chemiluminescent kit, HitHunter cAMP II Assay Kit (by Amersham Bioscience).

A further data set relates to TNCB-induced dermatitis. Description: Dermatitis inhibitory effect in trinitrochlorobenzene (TNCB)-induced dermatitis model. The format is in vivo, BALB/C mouse. The following applies: 20 mg of 1.0% test compound/vaseline ointment on right pinna, five times in 1 week; pinna thickness 6 hours after last application. Here is the method:
The dermatitis inhibitory effect of a test compound was investigated, using a trinitrochlorobenzene (TNCB)-induced dermatitis model (J. Invest. Dermatol., 105, 749-755, 1995, J. Immuno., 159, 2484-2491, 1997).
20 μL of 1% (w/v) TNCB/acetone solution was applied dropwise to both sides of the right pinna of a BALB/C mouse (♂, 8-week old), whereby the mouse was sensitized. From day 7 after the sensitization with TNCB, 1% TNCB/acetone solution was applied to both sides of the right pinna of the mouse every other day at 3 times/week, for 3 weeks in total. TNCB was applied for 2 weeks so as to fully induce dermatitis in the mouse, and then 20 mg of 1.0% test compound/vaseline ointment was applied to both sides of the right pinna five times in total for 1 week. At 6 hours after the last application, the thickness of the right pinna of the mouse was measured, and the effect of the test compound on dermatitis was thus evaluated. The inhibitory rate was calculated according to the following formula.
Inhibitory Rate (%)={1−[mean thickness of inflamed pinna (right ear) of chemical-treated group−mean thickness of non-inflamed pinna (left ear) of the group]/[mean thickness of inflamed pinna (right ear) of diseased control group−mean thickness of non-inflamed pinna (left ear) of the group]}×100.

A short description of data set [2]: Metabolism by human liver microsome. The data set is classed as in vitro ADME. As to conditions: NADPH producing system, 37° C., 10 minutes after start of incubation. As for the experimental part: The metabolic characteristics of a test compound were investigated, using human liver microsome.
400 μL of EP buffer (0.25 mM EDTA, 0.25 M potassium phosphate buffer, pH 7.4), 50 μL of 20 mg/mL human liver microsome fraction (by KAC), 350 μl of pure water and 100 μL of 1×10^−4 M test compound were put into a 1.5 mL microtube, and preincubated at 37° C. for 5 minutes. 100 μL of an NADPH producing system (containing 20 mg of NADP+, 70 mg of G6P, 40 units of G6PDH, 20 mg of magnesium chloride hexahydrate in 1 mL of pure water) was added to it, and incubated. To 100 μL of the sample taken at 10 minutes after the start of the incubation, added was the same amount of acetonitrile, and the reaction was thereby stopped. […] 20 μL of the supernatant was led into a high-performance liquid chromatography (Shimadzu'sSPD-10A, LC-10AS, CTO-10A, C-R6A), and the peak area of the test compound at 320 nm was measured, using a C18 column (Cadenza, CD-C18, 75×4.6 mm). […] Under the condition, the peak area of the test compound was measured. The metabolic rate was calculated as follows: 100 μL of acetonitrile was added to 90 μL of the above pre-incubated solution, and then 10 μl of the NADPH producing system was added thereto, and the resulting solution was analyzed for the peak area of the test compound. Based on it, the metabolic rate in 10 minutes after the incubation was calculated.

The mark [3] stands for this setting: Rattus norvegicus, Whole blood cell, 5 h.

T1 sequence (Q08499 whole entry): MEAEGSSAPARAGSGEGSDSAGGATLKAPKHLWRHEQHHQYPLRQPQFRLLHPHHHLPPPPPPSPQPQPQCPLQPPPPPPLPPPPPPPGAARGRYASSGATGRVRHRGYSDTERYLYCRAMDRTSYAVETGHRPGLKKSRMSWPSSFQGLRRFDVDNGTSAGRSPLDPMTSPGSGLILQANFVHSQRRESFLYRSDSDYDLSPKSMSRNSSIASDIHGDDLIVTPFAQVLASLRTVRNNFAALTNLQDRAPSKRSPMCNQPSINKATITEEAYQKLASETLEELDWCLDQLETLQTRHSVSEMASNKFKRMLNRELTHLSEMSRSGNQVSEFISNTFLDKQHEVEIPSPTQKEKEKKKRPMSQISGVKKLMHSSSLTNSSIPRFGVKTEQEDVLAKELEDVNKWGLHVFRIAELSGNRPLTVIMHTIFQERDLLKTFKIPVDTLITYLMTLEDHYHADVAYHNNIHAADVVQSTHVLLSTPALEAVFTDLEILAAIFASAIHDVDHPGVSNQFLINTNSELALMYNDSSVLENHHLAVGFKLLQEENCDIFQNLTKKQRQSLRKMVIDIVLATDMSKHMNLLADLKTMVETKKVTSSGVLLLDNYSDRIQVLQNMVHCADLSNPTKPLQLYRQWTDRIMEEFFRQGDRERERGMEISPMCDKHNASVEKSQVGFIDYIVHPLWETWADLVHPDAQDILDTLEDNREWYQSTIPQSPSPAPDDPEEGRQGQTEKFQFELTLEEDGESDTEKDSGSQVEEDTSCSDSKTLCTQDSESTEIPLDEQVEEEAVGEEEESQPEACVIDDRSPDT

In the case of `COc1ccc(C2=NN(Cc3cccc(CN4CCNC(=O)C4)c3)C(=O)[C@H]3CC=CC[C@@H]23)cc1OC` (relative stereo) [Example 20, cis-(+)-4-(3,4-dimethoxyphenyl)-2-[3-(3-oxopiperazin-1-ylmethyl)benzyl]-4a,5,8,8a-tetrahydro-2H-phthalazin-1-one], the midpoint of inhibition in data set [1] (Whole blood cell), the IC50, lay at 0.019 µM.

With `COc1ccc(C2=NN(Cc3ccc(Cn4ccnc4)cc3)C(=O)[C@H]3CC=CC[C@@H]23)cc1OC` (relative stereo) [Example 9, cis-4-(3,4-Dimethoxyphenyl)-2-[4-(imidazol-1-ylmethyl)benzyl]-4a,5,8,8a-tetrahydro-2H-phthalazin-1-one], the IC50 at human recombinant PDE4D amounted to 0.025 µM; in data set [1] (setting [3]), 0.001 µM.

Consider `COc1ccc(C2=NN(Cc3ccc(CN4CCC5(CC4)OCCO5)cc3)C(=O)[C@H]3CC=CC[C@@H]23)cc1OC` (relative stereo) [Example 5, cis-4-(3,4-Dimethoxyphenyl)-2-[4-(1,4-dioxa-8-azaspiro[4,5]dec-8-ylmethyl)benzyl]-4a,5,8,8a-tetrahydro-2H-phthalazin-1-one], for which the IC50 at human recombinant PDE4D was 0.02 µM; in data set [1] (Whole blood cell) it was 0.199 µM. The “Dermatitis Inhibitory Percentage (%)” value in the data set with TNCB-induced dermatitis is on record as 20.2%.

Molecule `COc1ccc(C2=NN(Cc3ccc(CN4CCNC(=O)C4)cc3)C(=O)[C@H]3CC=CC[C@@H]23)cc1OC` (relative stereo) [Example 16, cis-(+)-4-(3,4-Dimethoxyphenyl)-2-[4-(3-oxopiperazin-1-ylmethyl)benzyl]-4a,5,8,8a-tetrahydro-2H-phthalazin-1-one] registered an IC50 in data set [1] (Whole blood cell) of 0.0049 µM.

For `COc1ccc(C2=NN(Cc3ccc(CN4CCOCC4)cc3)C(=O)C3CC=CCC23)cc1OC` (stereo not drawn) [Example 1, cis-4-(3,4-Dimethoxyphenyl)-2-[4-(morpholin-4-ylmethyl)benzyl]-4a,5,8,8a-tetrahydro-2H-phthalazin-1-one], the results for the IC50 (at human recombinant PDE4D; in data set [1] (setting [3])) were 0.063 µM and 0.0043 µM, respectively. Also, the “Dermatitis Inhibitory Percentage (%)” value in the data set on TNCB-induced dermatitis is reported as 31.2%.

Consider `COc1ccc(C2=NN(Cc3ccc(CN4CCC(=O)CC4)cc3)C(=O)[C@H]3CC=CC[C@@H]23)cc1OC` (relative stereo) [Example 6, cis-4-(3,4-Dimethoxyphenyl)-2-[4-(4-oxopiperidin-1-ylmethyl)benzyl]-4a,5,8,8a-tetrahydro-2H-phthalazin-1-one], for which the half-inhibitory concentration (IC50) on human recombinant PDE4D amounted to 0.0013 µM; in data set [1] (setting [3]), 0.084 µM. For the same molecule, in the data set on TNCB-induced dermatitis, the “Dermatitis Inhibitory Percentage (%)” value is 36.8%.

Take `COc1ccc(C2=NN(Cc3ccc(CN4CCOCC4)cc3)C(=O)C3CC=CCC23)cc1OC` (single isomer, unassigned) [Example 2-2, cis-(+)-4-(3,4-Dimethoxyphenyl)-2-[4-(morpholin-4-ylmethyl)benzyl]-4a,5,8,8a-tetrahydro-2H-phthalazin-1-one monomaleate]: the values for the IC50 (at human recombinant PDE4D; in data set [1] (monomaleate)) were 0.00079 µM and 0.0011 µM, respectively.

Consider `COc1ccc(C2=NN(Cc3cccc(CN4CCOCC4)c3)C(=O)[C@H]3CC=CC[C@@H]23)cc1OC` (relative stereo) [Example 10, cis-4-(3,4-Dimethoxyphenyl)-2-[3-(morpholin-4-ylmethyl)benzyl]-4a,5,8,8a-tetrahydro-2H-phthalazin-1-one], for which the IC50 is 0.02 µM on human recombinant PDE4D and 0.107 µM in data set [1] (Whole blood cell). Besides, in the data set on TNCB-induced dermatitis, the “Dermatitis Inhibitory Percentage (%)” value is 31.1%.

Turning to `COc1ccc(C2=NN(Cc3ccc(N4CCOCC4)cc3)C(=O)[C@H]3CC=CC[C@@H]23)cc1OC` (relative stereo) [Example 24, cis-4-(3,4-Dimethoxyphenyl)-2-(4-morpholin-4-ylbenzyl)-4a,5,8,8a-tetrahydro-2H-phthalazin-1-one], in data set [1] (Whole blood cell), the IC50 amounted to 0.012 µM.

As for `COc1ccc(C2=NN(Cc3ccc(CN4CCOCC4)cc3)C(=O)C3CC=CCC23)cc1OC` (single isomer, unassigned) [Example 2-1, cis-(+)-4-(3,4-Dimethoxyphenyl)-2-[4-(morpholin-4-ylmethyl)benzyl]-4a,5,8,8a-tetrahydro-2H-phthalazin-1-one], in the data set on TNCB-induced dermatitis, the “Dermatitis Inhibitory Percentage (%)” value is listed as 38.5%. For the same molecule, the “Metabolic Rate (%)” value in data set [2] was 61.5%. The IC50 in data set [1] (Whole blood cell) was found to be 0.0024 µM.

In data set [1] (Whole blood cell), `COc1ccc(C2=NN(Cc3ccc(C[N+]4([O-])CCOCC4)cc3)C(=O)[C@H]3CC=CC[C@@H]23)cc1OC` (relative stereo) [Example 21, cis-(+)-4-{4-[4-(3,4-dimethoxyphenyl)-1-oxo-4a,5,8,8a-tetrahydro-1H-phthalazin-2-ylmethyl]benzyl}morpholine 4-oxide] came in with an IC50 of 0.012 µM.

In the case of `COc1ccc(C2=NN(Cc3ccc(CN4CCOCC4)cc3)C(=O)[C@H]3CCCC[C@@H]23)cc1OC` (relative stereo) [Example 13, cis-4-(3,4-Dimethoxyphenyl)-2-[4-(morpholin-4-ylmethyl)benzyl]-4a,5,6,7,8,8a-hexahydro-2H-phthalazin-1-one], the figures for the IC50 (on human recombinant PDE4D; in data set [1] (Whole blood cell)) were 0.005 µM and 0.059 µM, respectively. In addition, in the data set on TNCB-induced dermatitis, the “Dermatitis Inhibitory Percentage (%)” value worked out at 33.2%.

On to `COc1ccc(C2=NN(Cc3ccc(C(=O)O)cc3)C(=O)[C@H]3CC=CC[C@@H]23)cc1OC` (relative stereo) [control compound A, cis-4-[4-(3,4-dimethoxyphenyl)-1-oxo-4a,5,8,8a-tetrahydro-1H-phthalazin-2-yl-methyl]benzoic acid, reference compound], for which the “Dermatitis Inhibitory Percentage (%)” value with TNCB-induced dermatitis came out at 2.6%. In addition, the “Metabolic Rate (%)” value in data set [2] is 35.2%. This molecule also returned an IC50 in data set [1] (Whole blood cell) of 133 µM.

Values taken from US20090042879A1, “PHTHALAZINONE DERIVATIVES AND PHARMACEUTICAL COMPOSITIONS COMPRISING THE SAME” (NIPPON SHINYAKU CO., LTD., priority 2005, published 2009).
